pIC50: −log10 of the molar value.
Target: T1, peroxisome proliferator-activated receptor gamma (PPARγ) (Homo sapiens, UniProt P37231)
T1 sequence (P37231 223-505 limits assumed): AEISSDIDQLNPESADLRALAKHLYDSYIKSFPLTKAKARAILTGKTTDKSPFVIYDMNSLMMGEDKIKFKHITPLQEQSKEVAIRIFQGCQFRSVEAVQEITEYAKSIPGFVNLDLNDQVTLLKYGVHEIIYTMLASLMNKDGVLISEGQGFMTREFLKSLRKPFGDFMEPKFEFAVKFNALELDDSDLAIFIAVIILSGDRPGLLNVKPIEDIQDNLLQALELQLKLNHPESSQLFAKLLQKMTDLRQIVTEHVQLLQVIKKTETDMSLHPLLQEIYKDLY
Assay: fluorescence polarization probe displacement
Format: binding

pIC50: 4.62
Structure (SMILES): O=c1c(-c2ccc(O)cc2)coc2cc(O)cc(O)c12 [genistein]

Reference: article PMC8092170 (Indian Journal of Pharmacology, 2021)
